Tests used:
PI3K α = molecular target: T1, PI3K α (Homo sapiens, UniProt P42336); experiment: In vitro PI3 kinase enzyme assay (alpha), ATP loss, bioluminescence; type: biochemical; settings: read-out: PI3Kα ATP loss IC50;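 note: purified p110α/p85 heterodimer acting on PtdIns(4,5)P2 at room temperature, remaining ATP read by luminescence, inhibition scaled between compound-free wells with and without enzyme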
T1 construct: Full length p110 subunits of PI3K α, β and δ, N-terminally labeled with polyHis tag; polyHis (N); made in house; host or cells: Sf9 insect cells (baculovirus)
T1 sequence (P42336 whole entry, species assumed): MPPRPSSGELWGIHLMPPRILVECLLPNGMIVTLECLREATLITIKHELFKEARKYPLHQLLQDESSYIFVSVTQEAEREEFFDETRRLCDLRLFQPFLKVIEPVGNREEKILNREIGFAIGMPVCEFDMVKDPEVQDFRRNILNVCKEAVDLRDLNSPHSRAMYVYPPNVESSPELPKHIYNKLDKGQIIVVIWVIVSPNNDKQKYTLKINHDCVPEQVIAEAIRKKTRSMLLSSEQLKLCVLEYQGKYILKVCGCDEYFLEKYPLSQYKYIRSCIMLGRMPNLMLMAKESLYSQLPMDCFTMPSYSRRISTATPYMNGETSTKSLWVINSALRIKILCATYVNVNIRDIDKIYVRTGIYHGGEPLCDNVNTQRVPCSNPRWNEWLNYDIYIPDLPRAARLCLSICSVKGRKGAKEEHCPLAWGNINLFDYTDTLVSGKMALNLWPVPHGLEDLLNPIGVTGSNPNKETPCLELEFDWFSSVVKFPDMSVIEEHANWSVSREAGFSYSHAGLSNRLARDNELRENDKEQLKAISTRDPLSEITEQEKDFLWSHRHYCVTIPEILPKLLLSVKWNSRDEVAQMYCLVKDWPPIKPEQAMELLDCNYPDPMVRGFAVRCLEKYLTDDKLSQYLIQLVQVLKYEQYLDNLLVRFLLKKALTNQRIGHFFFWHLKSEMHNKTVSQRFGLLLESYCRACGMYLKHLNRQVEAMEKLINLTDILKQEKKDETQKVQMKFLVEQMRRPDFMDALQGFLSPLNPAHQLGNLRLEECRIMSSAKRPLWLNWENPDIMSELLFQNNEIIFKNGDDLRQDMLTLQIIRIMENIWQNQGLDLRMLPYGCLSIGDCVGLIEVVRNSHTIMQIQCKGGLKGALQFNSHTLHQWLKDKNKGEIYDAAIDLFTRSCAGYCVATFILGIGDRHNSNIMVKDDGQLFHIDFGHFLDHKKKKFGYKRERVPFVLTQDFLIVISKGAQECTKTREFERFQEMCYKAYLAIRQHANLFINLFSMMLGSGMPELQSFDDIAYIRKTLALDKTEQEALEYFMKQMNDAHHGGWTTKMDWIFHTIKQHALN
T1 sequence (P27986 whole entry partner, species assumed): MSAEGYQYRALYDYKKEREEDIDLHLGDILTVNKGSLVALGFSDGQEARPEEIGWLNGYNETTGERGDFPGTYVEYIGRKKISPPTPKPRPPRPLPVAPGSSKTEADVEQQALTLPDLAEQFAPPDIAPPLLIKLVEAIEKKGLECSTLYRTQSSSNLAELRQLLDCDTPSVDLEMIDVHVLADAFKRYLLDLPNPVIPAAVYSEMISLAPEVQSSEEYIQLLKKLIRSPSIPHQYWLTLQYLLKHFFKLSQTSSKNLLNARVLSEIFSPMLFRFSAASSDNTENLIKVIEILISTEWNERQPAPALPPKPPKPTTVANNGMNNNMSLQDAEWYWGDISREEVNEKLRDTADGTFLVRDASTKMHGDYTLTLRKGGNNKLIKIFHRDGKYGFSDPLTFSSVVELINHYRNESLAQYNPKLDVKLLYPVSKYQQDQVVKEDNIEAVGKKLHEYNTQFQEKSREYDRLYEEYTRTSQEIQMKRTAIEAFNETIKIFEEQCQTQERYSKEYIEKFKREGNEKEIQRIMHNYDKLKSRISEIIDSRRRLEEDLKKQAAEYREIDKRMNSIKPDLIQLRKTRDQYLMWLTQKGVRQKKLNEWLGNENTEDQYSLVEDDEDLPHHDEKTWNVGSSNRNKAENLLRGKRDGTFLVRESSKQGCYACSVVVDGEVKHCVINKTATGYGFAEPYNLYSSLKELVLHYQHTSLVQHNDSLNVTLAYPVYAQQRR

PI3K β = molecular target: T2, PI3K β (Homo sapiens, UniProt P42338); experiment: In vitro PI3 kinase enzyme assay (beta), ATP loss, bioluminescence; type: biochemical; settings: read-out: PI3Kβ ATP loss IC50;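 note: purified p110β/p85 heterodimer with PtdIns(4,5)P2 as acceptor, incubated at room temperature, leftover ATP read by luminescence, inhibition scaled to compound-free wells with and without enzyme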
T2 construct: Full length p110 subunits of PI3K α, β and δ, N-terminally labeled with polyHis tag; polyHis (N); made in house; host or cells: Sf9 insect cells (baculovirus)
T2 sequence (P42338 whole entry): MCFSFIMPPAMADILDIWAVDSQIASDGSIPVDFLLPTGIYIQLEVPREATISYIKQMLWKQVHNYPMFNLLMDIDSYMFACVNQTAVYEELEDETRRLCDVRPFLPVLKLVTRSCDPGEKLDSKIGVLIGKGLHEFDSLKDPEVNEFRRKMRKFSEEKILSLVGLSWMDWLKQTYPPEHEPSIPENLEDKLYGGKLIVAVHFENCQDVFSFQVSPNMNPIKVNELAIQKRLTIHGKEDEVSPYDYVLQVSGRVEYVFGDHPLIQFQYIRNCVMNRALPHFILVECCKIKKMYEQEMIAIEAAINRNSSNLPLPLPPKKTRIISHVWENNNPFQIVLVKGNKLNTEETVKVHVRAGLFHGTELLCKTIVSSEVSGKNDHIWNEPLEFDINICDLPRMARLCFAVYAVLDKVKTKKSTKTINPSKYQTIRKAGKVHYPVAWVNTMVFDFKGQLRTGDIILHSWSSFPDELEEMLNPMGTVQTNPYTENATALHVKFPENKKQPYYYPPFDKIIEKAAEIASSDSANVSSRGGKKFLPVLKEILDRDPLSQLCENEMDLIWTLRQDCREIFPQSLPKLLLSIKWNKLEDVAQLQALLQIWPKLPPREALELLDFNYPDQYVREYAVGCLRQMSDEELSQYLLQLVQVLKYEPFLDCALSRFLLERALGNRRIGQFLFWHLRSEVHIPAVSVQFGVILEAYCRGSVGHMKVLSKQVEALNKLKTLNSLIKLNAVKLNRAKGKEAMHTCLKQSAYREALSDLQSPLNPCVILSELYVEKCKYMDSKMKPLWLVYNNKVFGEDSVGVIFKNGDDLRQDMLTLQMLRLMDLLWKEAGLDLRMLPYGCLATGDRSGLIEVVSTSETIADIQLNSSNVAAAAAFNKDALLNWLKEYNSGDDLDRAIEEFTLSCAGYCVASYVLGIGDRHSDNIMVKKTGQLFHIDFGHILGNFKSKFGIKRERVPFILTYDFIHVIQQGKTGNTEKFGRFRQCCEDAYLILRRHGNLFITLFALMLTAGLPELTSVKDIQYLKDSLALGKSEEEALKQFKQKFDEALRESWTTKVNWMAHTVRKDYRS
T2 sequence (P27986 whole entry partner): as the sequence (P27986 whole entry partner, species assumed) above

[1] = tested on: phosphorylation of Serine 473 in Akt, HCT 116 human colon carcinoma cells; experiment: Cell-based phospho-AKT Ser473 assay (MSD sandwich immunoassay, IGF-1 stimulated); settings: Homo sapiens, HCT-116, HCT 116 cells; read-out: HCT 116 pAKT IC50
Summary of the method: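 HCT116 cells, 16,000/well and plated overnight, were pre-treated with serially diluted compound for 2 h at 37 °C, then stimulated with IGF-1 at 100 ng/ml for 15 min. Lysates were assayed for Akt pSer473 by MSD sandwich electrochemiluminescence, and IC50 was derived from dose-response data.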

## CC(=O)Nc1nc2ccc(-c3cnc(Cl)c(OC(F)F)c3)cc2s1 [Example 247, N-(6-(6-chloro-5-(difluoromethoxy)pyridin-3-yl)benzo[d]thiazol-2-yl)acetamide]
PI3K α
  IC50: 0.0195 µM
PI3K β
  IC50: 0.243 µM
[1]
  IC50: 0.0939 µM

## CC(=O)Nc1nc2ccc(-c3ccnc(N(C)S(=O)(=O)c4ccc5ccccc5c4)n3)cc2s1 [Example 214, N-(6-(2-(N-methylnaphthalene-2-sulfonamido)pyrimidin-4-yl)benzo[d]thiazol-2-yl)acetamide]
PI3K α
  IC50: 0.074 µM
PI3K β
  IC50: 0.0862 µM
[1]
  IC50: 0.256 µM

## CC(=O)Nc1nc2ccc(-c3cnc(C)c(NS(=O)(=O)c4ccccc4)c3)cc2s1 [Example 110, N-(6-(6-methyl-5-(phenylsulfonamido)pyridin-3-yl)benzo[d]thiazol-2-yl)acetamide]
PI3K α
  IC50: 0.0038 µM
PI3K β
  IC50: 0.0106 µM
[1]
  IC50: 0.0314 µM

## CC(=O)Nc1nc2ccc(-c3ccnc(OCc4ccc5c(c4)OCO5)n3)cc2s1 [Example 40, N-(6-(2-(1,3-benzodioxol-5-ylmethoxy)-4-pyrimidinyl)-1,3-benzothiazol-2-yl)acetamide]
PI3K α
  IC50: 0.0834 µM
PI3K β
  IC50: 25.1 µM
[1]
  IC50: 1.05 µM

## CC(=O)Nc1nc2ccc(-c3ccnc(Sc4ccc(C)cc4)n3)cc2s1 [Example 36, N-(6-(2-((4-methylphenyl)sulfanyl)-4-pyrimidinyl)-1,3-benzothiazol-2-yl)acetamide]
PI3K α
  IC50: 0.0595 µM
PI3K β
  IC50: 0.554 µM
[1]
  IC50: 2.32 µM

## CC(=O)Nc1nc2ccc(-c3cnc(Cl)c(NS(=O)(=O)c4cc(Cl)cc(Cl)c4)c3)cc2s1 [Example 175, N-(6-(6-chloro-5-(3,5-dichlorophenylsulfonamido)pyridin-3-yl)benzo[d]thiazol-2-yl)acetamide]
PI3K α
  IC50: 0.0032 µM
PI3K β
  IC50: 0.0054 µM
[1]
  IC50: 0.0117 µM

## CC(=O)Nc1nc2ccc(-c3ccnc(O[C@H](C)c4ccccc4)n3)cc2s1 [Example 43, N-(6-(2-((1R)-1-phenylethoxy)-4-pyrimidinyl)-1,3-benzothiazol-2-yl)acetamide]
PI3K α
  IC50: 0.104 µM
PI3K β
  IC50: 0.517 µM
[1]
  IC50: 1.06 µM

## CC(=O)Nc1nc2ccc(-c3cnc(Cl)c(NS(=O)(=O)Cc4ccccc4)c3)cc2s1 [Example 188, N-(6-(6-chloro-5-(phenylmethylsulfonamido)pyridin-3-yl)benzo[d]thiazol-2-yl)acetamide]
PI3K α
  IC50: 0.0069 µM
PI3K β
  IC50: 0.0254 µM
[1]
  IC50: 0.11 µM

## CC(=O)Nc1nc2ccc(-c3cncc(N(C)S(=O)(=O)c4ccc(Cl)c(Cl)c4)c3)cc2s1 [Example 221, N-(6-(5-(3,4-dichloro-N-methylphenylsulfonamido)pyridin-3-yl)benzo[d]thiazol-2-yl)acetamide]
PI3K α
  IC50: 0.0792 µM
PI3K β
  IC50: 2.1 µM
[1]
  IC50: 0.32 µM

## CC(=O)Nc1nc2ccc(-c3cccc(N(C)S(=O)(=O)c4cccc(C)c4)n3)cc2s1 [Example 225, N-(6-(6-(N,3-dimethylphenylsulfonamido)pyridin-2-yl)benzo[d]thiazol-2-yl)acetamide]
PI3K α
  IC50: 0.0647 µM
PI3K β
  IC50: 0.294 µM
[1]
  IC50: 0.244 µM

## CC(=O)Nc1nc2ccc(-c3ccnc(Sc4ccccc4F)n3)cc2s1 [Example 23, N-(6-(2-((2-fluorophenyl)sulfanyl)-4-pyrimidinyl)-1,3-benzothiazol-2-yl)acetamide]
PI3K α
  IC50: 0.0623 µM
PI3K β
  IC50: 0.307 µM
[1]
  IC50: 0.35 µM

## O=S(=O)(Nc1cc(-c2ccc3ncoc3c2)cnc1Cl)c1ccc(F)cc1 [Example 326, N-(5-(1,3-benzoxazol-6-yl)-2-chloro-3-pyridinyl)-4-fluorobenzenesulfonamide]
PI3K α
  IC50: 0.0223 µM
PI3K β
  IC50: 0.0345 µM
[1]
  IC50: > 5 µM

## COc1ccc(S(=O)(=O)c2cncc(-c3ccc4nc(NC(C)=O)sc4c3)n2)cc1 [Example 120, N-(6-(6-((4-methoxyphenyl)sulfonyl)-2-pyrazinyl)-1,3-benzothiazol-2-yl)acetamide]
PI3K α
  IC50: 0.0164 µM
PI3K β
  IC50: 1.07 µM
[1]
  IC50: 0.332 µM

## CC(=O)Nc1nc2ccc(-c3cncc(NS(=O)(=O)c4ccc(C(C)(C)C)cc4)c3)cc2s1 [Example 201, N-(6-(5-(4-tert-butylphenylsulfonamido)pyridin-3-yl)benzo[d]thiazol-2-yl)acetamide]
PI3K α
  IC50: 0.0065 µM
PI3K β
  IC50: 0.0111 µM
[1]
  IC50: 0.117 µM

## CC(=O)Oc1cc(-c2ccc3ncsc3c2)cnc1Cl [Example 335, 5-(1,3-benzothiazol-6-yl)-2-chloro-3-pyridinyl acetate]
PI3K α
  IC50: 0.0156 µM
PI3K β
  IC50: 0.113 µM
[1]
  IC50: 0.044 µM

## COc1cccc(S(=O)(=O)Nc2nccc(-c3ccc4nc(NC(C)=O)sc4c3)n2)c1 [Example 85, N-(6-(2-(((3-methoxyphenyl)sulfonyl)amino)-4-pyrimidinyl)-1,3-benzothiazol-2-yl)acetamide]
PI3K α
  IC50: 0.0201 µM
PI3K β
  IC50: 0.0826 µM
[1]
  IC50: 0.917 µM

From patent publication US7928140B2, “Benzothiazole PI3 kinase modulators for cancer treatment” (Amgen Inc., priority 2007, dated 2011)
